Results: PMC10224329, “Design, Synthesis, and Antiproliferative Activity of Benzopyran-4-One-Isoxazole Hybrid Compounds” (Molecules, 2023)

Legend:
MDA-MB-231 cells = assay: Annexin V-FITC/PI apoptosis assay by flow cytometry; format: cell-based, human
Description: In accordance with the MTS assay, compound 5a had promising antiproliferative action. Therefore, we attempted to study the mechanism triggering cell death. […] MDA-MB-231 cells were treated with 5 μM of compound 5a and Dox (5 μM) as a positive control and incubated for 72 h, then double-stained carefully by membrane-linked protein Annexin-V fluorescein isothiocyanate (FITC) and propidium iodide (PI) for flow cytometry analysis. Normally, in the early stages of apoptosis, phosphatidylserine flips from the inner cell membrane to the surface of the cell membrane. […] PI is a nucleic acid dye that can only cross the membrane of advanced apoptosis and necrotic cells and redden the nucleus. Consequently, when the treated cells are double stained by the two fluorescent dyes, early and late apoptosis and necrotic cells can be clearly distinguished. […] These findings illustrated that compound 5a mainly leads to the early apoptosis of MDA-MB-231 cells.
The assay was detected using a commercially available kit (FITC Annexin V Apoptosis Detection Kit II, BD Biosciences, San Jose, CA, USA) per the manufacturer’s instructions. Briefly, MDA-MB-231 cells were seeded in 6-well plates at a concentration of 1 × 10^6 cells/well for 24 h; after that, cells were treated with 5a (5 µM) for 72 h. Dox (5 µM) was used as a positive control. After the treatment period, cells were washed with cold phosphate-buffered saline (PBS) twice. The cells were collected after trypsin treatment and centrifugated to get a pellet, and a binding buffer (1X) was used to resuspend the cells. Annexin V (5 μL) and propidium iodide (PI) (5 μL) were mixed with 100 μL of the suspended cells (1 × 10^6 cells/mL), followed by 15 min incubation at room temperature in the dark. The mixture was diluted by adding 400 μL of 1× binding buffer, and the cells were analyzed using flow cytometry, FACS Verse (BD Biosciences, USA). The experiment was repeated three times independently.

[1] = system: human breast tumor (MDA-MB-231) cell lines; assay: MTS cell viability assay; format: cell-based
Description: (§1) All the 14 hybrid compounds synthesized via Scheme 1, along with the intermediates and starting compounds, were tested in vitro for their cytotoxicity against a panel of 6 human cancer cell lines. This panel involved human leukemia carcinoma (CCRF-CEM), human ovarian adenocarcinoma (SKOV-3), human breast tumor (MDA-MB-231), human prostate cancer (PC-3), androgen-independent human prostate cancer (DU-145), and human renal carcinoma (iSLK) cell lines. The compounds were tested at a concentration of 25 μM for incubation periods of 24 and 72 h. Standard anticancer drug doxorubicin at a concentration of 5 μM and DMSO were used as controls in all the cell assays. The antiproliferative profile of benzopyran-4-one-isoxazole conjugates is shown in Figure 2 (cf. Supplementary Materials for the data obtained for intermediates and starting materials Figure S28.1–S28.6, page no. 71–76).
(§2) Cell viability assays were performed using the MTS protocol. The in vitro cytotoxicity of the conjugates was evaluated using six human cancer cell lines, one human normal kidney cell line, and one mammalian normal kidney cell line, which included human leukemia carcinoma cell lines (CCRF-CEM), human ovarian adenocarcinoma cell lines (SKOV-3), human breast tumor cell lines (MDA-MB-231), human prostate cancer cell lines (PC-3), androgen-independent human prostate cancer cell lines (DU-145), human renal carcinoma (iSLK), human embryonic kidney cell lines (HEK-293), and normal mammalian kidney cell line (LLCPK) to determine the toxicity of the synthesized conjugates. CCRF-CEM cells were seeded at 50,000 cells in 0.1 mL per well in 96-well plates, and in the case of SKOV-3, MDA-MB-231, PC-3, DU-145, HEK-293, and LLCPK cell lines, the cells were seeded at 5000 cells in 0.1 mL per well in 96-well plates. The CCRF-CEM cells were seeded in RPMI-1640 media containing 2mM L-glutamine, 1.5 g/L sodium bicarbonate, supplemented with fetal bovine serum (FBS) 10% media, SKOV-3, MDA-MB-231, and LLCPK cells were seeded in MEME media with Earle’s salts and sodium bicarbonate, without L-glutamine, supplemented with fetal bovine serum (FBS) 10%, PC-3 cells were seeded in DMEM:F-12 containing 1:1 mixture with L-glutamine with HEPES, supplemented with fetal bovine serum (FBS) 10%, and DU-145 and HEK-293 cells were seeded in DMEM containing 4500 mg/L glucose, L-glutamine, and sodium bicarbonate, without sodium pyruvate, supplemented with FBS (10%), 24 h prior to the experiment. The compounds at a final concentration of 25 µM (higher concentration stock solution prepared in DMSO) were added to each well in triplicate and incubated for 24 and 72 h at 37 °C in a humidified atmosphere (95% air and 5% CO2). The cell viability was then determined by measuring the absorbance of the formazan product at 490 nm using a microplate reader using a SpectraMax M2 microplate spectrophotometer, Molecular Devices, San Jose, CA, USA. The percentage of cell survival was calculated as [(OD value of cells treated with the test mixture of compounds) − (OD value of culture medium)]/[(OD value of control cells) − (OD value of culture medium)] × 100%. IC50 values of compounds were calculated using non-linear regression analysis in GraphPad Prism (Boston, MA, USA).

[2] = system: human renal carcinoma (iSLK) cell lines; assay: MTS cell viability assay; format: cell-based; settings: Homo sapiens; conjugates at 25 μM, 72 h; read-out: Inhibition of Cancer Cell Lines iSLK
Description: as §1, §2

[3] = system: human leukemia carcinoma (CCRF-CEM) cell lines; assay: MTS cell viability assay; format: cell-based; settings: Homo sapiens, CCRF-CEM
Description: as §1, §2

[4] = system: human ovarian adenocarcinoma (SKOV-3) cell lines; assay: MTS cell viability assay; format: cell-based; settings: SK-OV-3, conjugates at 25 μM, 72 h, read-out: Inhibition of Cancer Cell Lines SKOV-3
Description: as §1, §2

[5] = system: androgen-independent human prostate cancer (DU-145) cell lines; assay: MTS cell viability assay; format: cell-based
Description: as §1, §2

[6] = system: human prostate cancer (PC-3) cell lines; assay: MTS cell viability assay; format: cell-based
Description: as §1, §2

[7] = average of three independent tests in triplicate

IC50 [1, 7]: 5.6 µM | IC50 [3, 7]: 11.6 µM | IC50 [5, 7]: 15.3 µM | IC50 ([6]; PC3, average of three independent tests in triplicate): 17.8 µM
SMILES: Cc1noc(C)c1C(=O)OCc1coc2ccccc2c1=O [Compound 5a, (4-Oxo-4H-1-benzopyran-3-yl)methyl 3,5-dimethylisoxazole-4-carboxylate]
induced apoptosis in MDA-MB-231 (MDA-MB-231 cells; 5 μM concentration, compared to untreated cells): 50.8% | Early Apoptosis (MDA-MB-231 cells; MDA-MB-231, 5 μM, 72 h): 47.52% | Late Apoptosis (MDA-MB-231 cells; MDA-MB-231, 5 μM, 72 h): 3.28% | inhibition at 25 µM ([1]; conjugates at 25 μM, 72 h, read-out: Inhibition of Cancer Cell Lines MDA-MB-231): 78% | inhibition at 25 µM [2]: 44% | inhibition at 25 µM ([3]; conjugates at 25 μM, 72 h, read-out: Inhibition of Cancer Cell Lines CCRF-CEM): 81% | inhibition at 25 µM [4]: 69% | inhibition at 25 µM ([5]; conjugates at 25 μM, 72 h): 73% | inhibition at 25 µM ([6]; conjugates at 25 μM, 72 h): 70%
